According to ChEMBL document CHEMBL4765478, “Lithocholic Acid Derivatives as Potent Vitamin D Receptor Agonists” (J Med Chem, 2021):
pEC50, pIC50: −log10 of the molar value. The source made the active and inactive calls. The rule behind the calls is not given here.

Columns and labels:
Vitamin D3 receptor [1] = target: T1, Vitamin D3 receptor (Homo sapiens, UniProt P11473); test: Agonist activity at human VDR expressed in HEK293 cells expressing mouse osteopontin VDRE assessed as induction of receptor transactivation incubated for 16 hrs by luciferase reporter gene assay; assay type: cell-based
T1 sequence (P11473 whole entry): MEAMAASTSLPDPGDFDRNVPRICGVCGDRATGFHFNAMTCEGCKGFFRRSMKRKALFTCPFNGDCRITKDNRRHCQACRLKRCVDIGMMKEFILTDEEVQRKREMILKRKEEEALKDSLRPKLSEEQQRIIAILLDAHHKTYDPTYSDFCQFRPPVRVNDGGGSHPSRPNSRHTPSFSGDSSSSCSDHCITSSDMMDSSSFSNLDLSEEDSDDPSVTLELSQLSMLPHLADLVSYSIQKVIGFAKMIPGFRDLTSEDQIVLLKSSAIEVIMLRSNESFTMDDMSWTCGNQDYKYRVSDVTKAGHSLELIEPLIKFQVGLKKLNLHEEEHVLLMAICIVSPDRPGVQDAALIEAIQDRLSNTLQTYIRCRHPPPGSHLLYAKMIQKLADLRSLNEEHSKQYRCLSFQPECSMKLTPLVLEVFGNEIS

[2] = target: T2, Vitamin D3 receptor (Homo sapiens) (UniProt P11473); test: Agonist activity at VDR in human HL-60 cells assessed as induction of cell differentiation of promyelocytes to monocytes at 0.1 nM after 4 days by NBT reduction assay; assay type: cell-based; conditions: filed as agonist, time 4.0 day
T2 sequence (whole entry): T1 sequence (P11473 whole entry)

Vitamin D3 receptor [3] = target: T1, Vitamin D3 receptor; test: Agonist activity at human VDR expressed in African green monkey COS7 cells expressing mouse osteopontin VDRE assessed as induction of receptor transactivation incubated for 16 hrs by luciferase reporter gene assay; assay type: cell-based
[4] = target: T3, Vitamin D3 receptor (Bos taurus) (UniProt Q28037); test: (§1) Displacement of [3H]-1-alpha,25-(OH)2D3 from bovine thymus VDR incubated for 18 hrs by competitive binding assay; conditions: filed as agonist
T3 sequence (whole entry): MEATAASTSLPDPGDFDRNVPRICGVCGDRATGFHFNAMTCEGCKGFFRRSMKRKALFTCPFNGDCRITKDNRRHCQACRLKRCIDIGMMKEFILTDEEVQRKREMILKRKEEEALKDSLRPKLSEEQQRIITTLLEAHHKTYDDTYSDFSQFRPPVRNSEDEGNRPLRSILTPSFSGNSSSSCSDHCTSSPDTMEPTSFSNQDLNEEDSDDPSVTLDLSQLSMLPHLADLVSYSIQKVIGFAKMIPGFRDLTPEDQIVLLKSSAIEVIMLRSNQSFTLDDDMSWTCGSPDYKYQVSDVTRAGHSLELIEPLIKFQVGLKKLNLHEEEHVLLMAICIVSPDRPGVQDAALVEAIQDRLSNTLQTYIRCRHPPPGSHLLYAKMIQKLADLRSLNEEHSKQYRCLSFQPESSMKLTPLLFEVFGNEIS

Vitamin D3 receptor [5] = target: T4, Vitamin D3 receptor (Bos taurus, UniProt Q28037); test: as §1
T4 sequence (Q28037 whole entry): T3 sequence (whole entry)

[6] = target: T2, Vitamin D3 receptor (Homo sapiens); test: Potency index, ratio of EC50 for lithocholic acid to EC50 for test compound for agonist activity at VDR in human HL60 cells assessed as induction of cell differentiation of promyelocytes to monocytes after 4 days by NBT reduction assay; assay type: cell-based; conditions: HL-60, time 4.0 day
[7] = target: T2, Vitamin D3 receptor (Homo sapiens); test: Potency index, ratio of EC50 for 1-alpha,25-(OH)2D3 to EC50 for test compound for agonist activity at VDR in human HL60 cells assessed as induction of cell differentiation of promyelocytes to monocytes after 4 days by NBT reduction assay; assay type: cell-based; conditions: HL-60, time 4.0 day
[8] = target: T2, Vitamin D3 receptor (Homo sapiens); test: Agonist activity at VDR in human HL-60 cells assessed as induction of cell differentiation of promyelocytes to monocytes at 1 uM after 4 days by NBT reduction assay; assay type: cell-based; conditions: filed as agonist, time 4.0 day

Activity [8]	SMILES	pEC50 (Vitamin D3 receptor [1])	Activity [2]	pEC50 (Vitamin D3 receptor [3])	Activity [4]	pIC50 (Vitamin D3 receptor [5])	Ratio EC50 [6]	Ratio EC50 [7]
	C[C@H](CCC(=O)O)[C@H]1CC[C@H]2[C@@H]3CC[C@@H]4C[C@H](CC(C)(C)O)CC[C@]4(C)[C@H]3CC[C@]12C	9.82	Active	9.00	Dose-dependent effect	8.68	< 10000	3
Active	C[C@H](CCC(=O)O)[C@H]1CC[C@H]2[C@@H]3CC[C@@H]4C[C@H](C(C)(C)O)CC[C@]4(C)[C@H]3CC[C@]12C							
	C[C@H](CCC(=O)O)[C@H]1CC[C@H]2[C@@H]3CC[C@@H]4C[C@@H](CC(C)(C)O)CC[C@]4(C)[C@H]3CC[C@]12C	10.85		9.62	Dose-dependent effect	7.17		
Active	C[C@H](CCC(=O)O)[C@H]1CC[C@H]2[C@@H]3CC[C@@H]4C[C@H](OS(C)(=O)=O)CC[C@]4(C)[C@H]3CC[C@]12C							

SMILES	Activity [8]	pEC50 (Vitamin D3 receptor [1])	Activity [2]	pEC50 (Vitamin D3 receptor [3])	Activity [4]	pIC50 (Vitamin D3 receptor [5])	Ratio EC50 [6]	Ratio EC50 [7]
CC(=O)O[C@@H]1CC[C@@]2(C)[C@H](CC[C@@H]3[C@@H]2CC[C@]2(C)[C@@H]([C@H](C)CCC(=O)O)CC[C@@H]32)C1	Active							
